Assays:
Assay type in all cases: cell-based
HT29 = assay: NCI screen, growth of human tumor cells: Colon Cancer HT29; conditions: for percent of growth of human tumor cells: HT29 (Colon Cancer), 10^−4 molar
Procedure, shortened: (§1)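 At least 60 data points describe each compound tested by NCI. Cancer type, molar concentration in the screen and percent growth make up the recorded data.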

NCI-H460 = assay: NCI screen, growth of human tumor cells: Non-Small Cell Lung NCI-H460
Procedure, shortened: as §1

HL-60 (TB) = assay: NCI screen, growth of human tumor cells: Leukemia HL-60 (TB); conditions: for % Growth: HL-60(TB)
Description: (§2) In the NCI screening process, each compound was tested and described by a minimum of 60 data points. The test data include, but are not limited to the type of cancer, the molar concentration used in the screen, and the percent growth of the cancer. In some cases, NMR and elemental analysis were used for structural assignment.

786-0 = assay: NCI screen, growth of human tumor cells: Renal Cancer 786-0
Procedure, shortened: as §1

PC-3 = assay: NCI screen, growth of human tumor cells: Prostate Cancer PC-3
Procedure, shortened: as §1

K562 = assay: NCI screen, growth of human tumor cells: Leukemia K562
Procedure, shortened: as §1

TK-10 = assay: NCI screen, growth of human tumor cells: Renal Cancer TK-10; conditions: for % Growth: TK-10, 10^−4 molar
Procedure, shortened: as §1

MCF7/ADR-RES = assay: NCI screen, growth of human tumor cells: Breast Cancer MCF7/ADR-RES; conditions: MCF7/ADR-RES (Breast Cancer), 10^−4 molar
Procedure, shortened: as §1

SK-OV-3 = assay: NCI screen, growth of human tumor cells: Ovarian Cancer SK-OV-3; conditions: SK-OV-3, 10^−4 molar
Procedure, shortened: as §1

SK-MEL-28 = assay: NCI screen, growth of human tumor cells: Melanoma SK-MEL-28
Procedure, shortened: as §1

RXF-393 = assay: NCI screen, growth of human tumor cells: Renal Cancer RXF-393
Procedure, shortened: as §1

NCI-H23 = assay: NCI screen, growth of human tumor cells: Non-Small Cell Lung NCI-H23
Procedure, shortened: as §1

SW620 = assay: NCI screen, growth of human tumor cells: Colon Cancer SW620
Procedure, shortened: as §1

HCT-116 = assay: NCI screen, growth of human tumor cells: Colon Cancer HCT-116
Procedure, shortened: as §1

HOP-92 = assay: NCI screen, growth of human tumor cells: Non-Small Cell Lung HOP-92
Procedure, shortened: as §1

T-47D = assay: NCI screen, growth of human tumor cells: Breast Cancer T-47D; conditions: 10^−4 molar; for percent of growth of human tumor cells: T-47D (Breast Cancer)
Description: as §2

HS 578T = assay: NCI screen, growth of human tumor cells: Breast Cancer HS 578T; conditions: HS 578T (Breast Cancer), 10^−4 molar
Procedure, shortened: as §1

BT-549 = assay: NCI screen, growth of human tumor cells: Breast Cancer BT-549
Procedure, shortened: as §1

MALME-3M = assay: NCI screen, growth of human tumor cells: Melanoma MALME-3M; conditions: for % Growth: MALME-3M
Procedure, shortened: as §1

CCRF-CEM = assay: NCI screen, growth of human tumor cells: Leukemia CCRF-CEM; conditions: for % Growth: CCRF-CEM
Procedure, shortened: as §1

RPMI-8226 = assay: NCI screen, growth of human tumor cells: Leukemia RPMI-8226; conditions: for percent of growth of human tumor cells: RPMI-8226 (Leukemia), 10^−4 molar
Procedure, shortened: as §1

MDA-N = assay: NCI screen, growth of human tumor cells: Breast Cancer MDA-N; conditions: 10^−4 molar
Procedure, shortened: as §1

M14 = assay: NCI screen, growth of human tumor cells: Melanoma M14; conditions: M14, 10^−4 molar
Procedure, shortened: as §1

KD488 = assay: NCI screen, growth of human tumor cells: Lymphoma KD488
RL = assay: NCI screen, growth of human tumor cells: Lymphoma RL
AS283 = assay: NCI screen, growth of human tumor cells: Lymphoma AS283
SU-DAL-7 = assay: NCI screen, growth of human tumor cells: Lymphoma SU-DAL-7
PA682 = assay: NCI screen, growth of human tumor cells: Lymphoma PA682

With `CC1(C)OCC(COC(=O)C(=O)C2(Cc3ccc4c(c3)C(=O)c3ccccc3C4=O)S(=O)(=O)OCCOS2(=O)=O)O1` (stereo not shown) [NSC 737276] the “percent of growth of human tumor cells” value (HT29) was −25%, the “percent of growth of human tumor cells” value (NCI-H460; NCI-H460 (Non-Small Cell Lung), 10^−4 molar) was −59% and the “percent of growth of human tumor cells” value (HL-60 (TB); HL-60 (TB) (Leukemia), 10^−4 molar) was −3%. For the same compound, the “% Growth” value (786-0; 786-0, 10^−4 molar) was −74%, the “% Growth” value (PC-3; PC-3, 10^−4 molar) was −68% and the “percent of growth of human tumor cells” value (K562; K562 (Leukemia), 10^−4 molar) was 29%. The “% Growth” value (TK-10) was −73%, the “percent of growth of human tumor cells” value (MCF7/ADR-RES) was −29% and the “% Growth” value (SK-OV-3) was −67%. The “percent of growth of human tumor cells” value (SK-MEL-28; SK-MEL-28 (Melanoma), 10^−4 molar) was −52%, the “percent of growth of human tumor cells” value (RXF-393; RXF-393 (Renal Cancer), 10^−4 molar) was −54% and the “% Growth” value (NCI-H23; NCI-H23, 10^−4 molar) was −75%. The “% Growth” value (SW620; SW620, 10^−4 molar) was −74%, the “% Growth” value (HCT-116; HCT-116, 10^−4 molar) was −86% and the “percent of growth of human tumor cells” value (HOP-92; HOP-92 (Non-Small Cell Lung), 10^−4 molar) was −47%. The “percent of growth of human tumor cells” value (T-47D) was −39%, the “percent of growth of human tumor cells” value (HS 578T) was 17% and the “percent of growth of human tumor cells” value (BT-549; BT-549 (Breast Cancer), 10^−4 molar) was −49%. The “percent of growth of human tumor cells” value (MALME-3M; MALME-3M (Melanoma), 10^−4 molar) was −50%, the “percent of growth of human tumor cells” value (CCRF-CEM; CCRF-CEM (Leukemia), 10^−4 molar) was −38% and the “percent of growth of human tumor cells” value (RPMI-8226) was −35%.
In the case of `CC1=C(CC2S(=O)(=O)OCCOS2(=O)=O)C(=O)c2ccccc2C1=O` [NSC 693874, ethylene (3-methyl-1,4-naphtho-2-quinoyl)-1,1-ethanedisulfonate], the “% Growth” value (NCI-H460; NCI-H460, 10^−4 molar) is reported as −73%, the “% Growth” value (NCI-H460; NCI-H460, 10^−5 molar) is reported as 59% and the “percent of growth of human tumor cells” value (786-0; 786-0 (Renal Cancer), 10^−4 molar) is reported as −16%. The “% Growth” value (PC-3; PC-3, 10^−4 molar) was −80%, the “% Growth” value (TK-10) was −100% and the “percent of growth of human tumor cells” value (MCF7/ADR-RES) was −41%. For the same compound, the “% Growth” value (SK-OV-3) was −75%, the “% Growth” value (SK-MEL-28; SK-MEL-28, 10^−4 molar) was −83% and the “% Growth” value (NCI-H23; NCI-H23, 10^−4 molar) was −89%. For the same compound, the “% Growth” value (NCI-H23; NCI-H23, 10^−5 molar) was 62%, the “percent of growth of human tumor cells” value (MDA-N) was −59% and the “% Growth” value (HOP-92; HOP-92, 10^−4 molar) was −88%. For the same compound, the “percent of growth of human tumor cells” value (HS 578T) was −21%, the “% Growth” value (BT-549; BT-549, 10^−4 molar) was −100% and the “% Growth” value (MALME-3M; 10^−4 molar) was −78%. For the same compound, the “% Growth” value (CCRF-CEM; 10^−4 molar) was −49%, the “% Growth” value (CCRF-CEM; 10^−5 molar) was 28% and the “% Growth” value (RPMI-8226; RPMI-8226, 10^−4 molar) was −55%.
With `CC(=O)C1(CC2=C(C)C(=O)c3ccccc3C2=O)S(=O)(=O)OCCOS1(=O)=O` [NSC 701690] the “percent of growth of human tumor cells” value (HT29) was −25%, the “% Growth” value (NCI-H460; NCI-H460, 10^−4 molar) was −100% and the “% Growth” value (NCI-H460; NCI-H460, 10^−5 molar) was 42%. The “% Growth” value (786-0; 786-0, 10^−4 molar) was −100%, the “% Growth” value (786-0; 786-0, 10^−5 molar) was 36% and the “% Growth” value (PC-3; PC-3, 10^−4 molar) was −38%. The “% Growth” value (PC-3; PC-3, 10^−5 molar) was 52%, the “% Growth” value (PC-3; PC-3, 10^−6 molar) was 59% and the “% Growth” value (PC-3; PC-3, 10^−7 molar) was 28%. For the same compound, the “% Growth” value (PC-3; PC-3, 10^−8 molar) was 28%, the “% Growth” value (K562; K562, 10^−4 molar) was −66% and the “percent of growth of human tumor cells” value (TK-10; TK-10 (Renal Cancer), 10^−4 molar) was −8%. The “percent of growth of human tumor cells” value (MCF7/ADR-RES) was −40%, the “% Growth” value (SK-MEL-28; SK-MEL-28, 10^−4 molar) was −100% and the “% Growth” value (SK-MEL-28; SK-MEL-28, 10^−5 molar) was 58%. The “% Growth” value (RXF-393; RXF-393, 10^−4 molar) was −69%, the “% Growth” value (NCI-H23; NCI-H23, 10^−4 molar) was −91% and the “% Growth” value (SW620; SW620, 10^−4 molar) was −100%. For the same compound, the “% Growth” value (SW620; SW620, 10^−5 molar) was 23%, the “% Growth” value (SW620; SW620, 10^−6 molar) was 54% and the “% Growth” value (HCT-116; HCT-116, 10^−4 molar) was −100%. For the same compound, the “% Growth” value (HOP-92; HOP-92, 10^−4 molar) was −66%, the “% Growth” value (HOP-92; HOP-92, 10^−5 molar) was 23% and the “% Growth” value (HOP-92; HOP-92, 10^−6 molar) was 60%. For the same compound, the “percent of growth of human tumor cells” value (T-47D) was −54%, the “% Growth” value (T-47D; T-47D) was −54% and the “% Growth” value (BT-549; BT-549, 10^−4 molar) was −100%. The “% Growth” value (MALME-3M; 10^−4 molar) was −100%, the “% Growth” value (MALME-3M; 10^−5 molar) was 38% and the “% Growth” value (MALME-3M; 10^−6 molar) was 43%. For the same compound, the “% Growth” value (CCRF-CEM; 10^−4 molar) was −73%, the “% Growth” value (CCRF-CEM; 10^−5 molar) was 55% and the “% Growth” value (M14) was −100%. The “percent of growth of human tumor cells” value (RPMI-8226) was −18%.
With `Cc1ccc2ccccc2c1CC1S(=O)(=O)OCCOS1(=O)=O` [NSC 679043, ethylene 2-methyl-1-naphyl-1,1-ethanedisulfonate] the “% Growth” value (KD488; KD488, 10^−4 molar) was −45%, the “% Growth” value (KD488; KD488, 10^−5 molar) was 30% and the “% Growth” value (KD488; KD488, 10^−6 molar) was 62%. The “% Growth” value (KD488; KD488, 10^−7 molar) was 54%, the “% Growth” value (HT29; HT-29, 10^−4 molar) was −95% and the “% Growth” value (HT29; HT-29, 10^−5 molar) was 57%. For the same compound, the “% Growth” value (HL-60 (TB); 10^−4 molar) was −49%, the “% Growth” value (HL-60 (TB); 10^−5 molar) was −33% and the “% Growth” value (786-0; 786-0, 10^−4 molar) was −97%. The “% Growth” value (PC-3; PC-3, 10^−4 molar) was −91%, the “% Growth” value (PC-3; PC-3, 10^−5 molar) was 57% and the “% Growth” value (RL; 10^−4 molar) was −45%. For the same compound, the “% Growth” value (RL; 10^−5 molar) was 33%, the “% Growth” value (AS283; AS283, 10^−4 molar) was −34% and the “% Growth” value (AS283; AS283, 10^−5 molar) was 37%. For the same compound, the “% Growth” value (K562; K562, 10^−4 molar) was −42%, the “% Growth” value (K562; K562, 10^−5 molar) was 48% and the “% Growth” value (TK-10) was −93%. The “percent of growth of human tumor cells” value (MCF7/ADR-RES) was −12%, the “% Growth” value (SK-MEL-28; SK-MEL-28, 10^−4 molar) was −78% and the “% Growth” value (NCI-H23; NCI-H23, 10^−4 molar) was −48%. For the same compound, the “% Growth” value (NCI-H23; NCI-H23, 10^−5 molar) was 75%, the “% Growth” value (SU-DAL-7; SU-DAL-7, 10^−4 molar) was −44% and the “% Growth” value (SU-DAL-7; SU-DAL-7, 10^−5 molar) was 14%. For the same compound, the “% Growth” value (HCT-116; HCT-116, 10^−4 molar) was −99%, the “% Growth” value (HCT-116; HCT-116, 10^−5 molar) was 15% and the “% Growth” value (PA682; PA682, 10^−4 molar) was −33%. For the same compound, the “% Growth” value (PA682; PA682, 10^−5 molar) was 45%, the “% Growth” value (BT-549; BT-549, 10^−4 molar) was −82% and the “% Growth” value (BT-549; BT-549, 10^−5 molar) was 57%. The “% Growth” value (MALME-3M; 10^−4 molar) was −88%, the “% Growth” value (CCRF-CEM; 10^−4 molar) was −49% and the “% Growth” value (CCRF-CEM; 10^−5 molar) was 37%. The “% Growth” value (M14) was −78%, the “% Growth” value (RPMI-8226; RPMI-8226, 10^−4 molar) was −54% and the “% Growth” value (RPMI-8226; RPMI-8226, 10^−5 molar) was 56%.

— patent US8124793B2, “Derivatives of ethylene methanedisulfonate as cancer chemotherapeutic agents” (priority 2007, dated 2012)
